# Measured values: PubChem BioAssay (NCI)
#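 Method: 48-hour compound exposure of cells in 96-well plates, five concentrations, linear interpolation of endpoints. The concentration for 50% growth inhibition is given as GI50. TGI: total growth inhibition.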
# Key:
# Experiment in all cases: inhibition of tumour cell growth, NCI panel, 48 h
# MDA-MB-435 = system: MDA-MB-435
# MOLT-4 leukemia = system: MOLT-4 leukemia
# NCI-H460 lung = system: NCI-H460 lung
# SNB-75 CNS = system: SNB-75 CNS
# KM12 colon = system: KM12 colon
# OVCAR-5 ovarian = system: OVCAR-5 ovarian
# 786-0 renal = system: 786-0 renal
# U251 CNS = system: U251 CNS
# A498 renal = system: A498 renal
# HCC-2998 colon = system: HCC-2998 colon
# HOP-62 NSCLC = system: HOP-62 NSCLC
# SNB-19 CNS = system: SNB-19 CNS
# TK-10 renal = system: TK-10 renal
# MALME-3M melanoma = system: MALME-3M melanoma
# A549 NSCLC = system: A549 NSCLC
# MDA-MB-468 breast = system: MDA-MB-468 breast
# HCT-15 colon = system: HCT-15 colon
# LOX IMVI melanoma = system: LOX IMVI melanoma
# EKVX NSCLC = system: EKVX NSCLC
# OVCAR-4 ovarian = system: OVCAR-4 ovarian
# HCT-116 colon = system: HCT-116 colon
# HOP-92 NSCLC = system: HOP-92 NSCLC
# RPMI-8226 leukemia = system: RPMI-8226 leukemia
# SF-295 CNS = system: SF-295 CNS
# IGROV1 ovarian = system: IGROV1 ovarian
# ACHN renal = system: ACHN renal
# DU-145 prostate = system: DU-145 prostate
# CAKI-1 renal = system: CAKI-1 renal
# MCF7 breast = system: MCF7 breast
# HL-60(TB) leukemia = system: HL-60(TB) leukemia
# NCI-H522 lung = system: NCI-H522 lung
# MDA-MB-231 breast = system: MDA-MB-231 breast
# SF-539 CNS = system: SF-539 CNS
# HS 578T breast = system: HS 578T breast
# T-47D breast = system: T-47D breast
# K-562 leukemia = system: K-562 leukemia
# UACC-257 melanoma = system: UACC-257 melanoma
# NCI-H23 lung = system: NCI-H23 lung
# SK-MEL-2 melanoma = system: SK-MEL-2 melanoma
# BT-549 breast = system: BT-549 breast
# COLO 205 colon = system: COLO 205 colon
# PC-3 prostate = system: PC-3 prostate
# SN12C renal = system: SN12C renal
# SW-620 colon = system: SW-620 colon
# OVCAR-8 ovarian = system: OVCAR-8 ovarian
# SK-MEL-28 melanoma = system: SK-MEL-28 melanoma
# HT29 colon = system: HT29 colon
# UO-31 renal = system: UO-31 renal
# OVCAR-3 ovarian = system: OVCAR-3 ovarian
# UACC-62 melanoma = system: UACC-62 melanoma
# SF-268 CNS = system: SF-268 CNS
# SK-MEL-5 melanoma = system: SK-MEL-5 melanoma
# RXF 393 renal = system: RXF 393 renal
# M14 melanoma = system: M14 melanoma
# SR leukemia = system: SR leukemia
# CCRF-CEM leukemia = system: CCRF-CEM leukemia
# NCI/ADR-RES ovarian = system: NCI/ADR-RES ovarian
# SK-OV-3 ovarian = system: SK-OV-3 ovarian
# NCI-H226 lung = system: NCI-H226 lung
structure (smiles),measurement,setting,value
N#Cc1c(NC(=O)c2ccc(C(F)(F)F)cc2C(F)(F)F)sc2c1CCC(=O)C2,GI50,MDA-MB-435,888 nM
same,TGI,MDA-MB-435,2980 nM
same,GI50,MOLT-4 leukemia,386 nM
same,TGI,MOLT-4 leukemia,7.21 µM
same,GI50,NCI-H460 lung,3.13 µM
same,TGI,NCI-H460 lung,10.9 µM
same,GI50,SNB-75 CNS,1460 nM
same,TGI,SNB-75 CNS,4.9 µM
same,GI50,KM12 colon,468 nM
same,TGI,KM12 colon,2330 nM
same,GI50,OVCAR-5 ovarian,1040 nM
same,TGI,OVCAR-5 ovarian,2670 nM
same,GI50,786-0 renal,442 nM
same,TGI,786-0 renal,4.08 µM
same,GI50,U251 CNS,800 nM
same,TGI,U251 CNS,13.2 µM
same,GI50,A498 renal,13 µM
same,TGI,A498 renal,28.1 µM
same,GI50,HCC-2998 colon,1660 nM
same,TGI,HCC-2998 colon,5.6 µM
same,GI50,HOP-62 NSCLC,3.45 µM
same,TGI,HOP-62 NSCLC,14 µM
same,GI50,SNB-19 CNS,3.69 µM
same,TGI,SNB-19 CNS,14.1 µM
same,GI50,TK-10 renal,367 nM
same,TGI,TK-10 renal,2190 nM
same,GI50,MALME-3M melanoma,369 nM
same,TGI,MALME-3M melanoma,1450 nM
same,GI50,A549 NSCLC,3.29 µM
same,TGI,A549 NSCLC,30 µM
same,GI50,MDA-MB-468 breast,565 nM
same,TGI,MDA-MB-468 breast,1820 nM
same,GI50,HCT-15 colon,335 nM
same,TGI,HCT-15 colon,1390 nM
same,GI50,LOX IMVI melanoma,369 nM
same,TGI,LOX IMVI melanoma,2170 nM
same,GI50,EKVX NSCLC,1650 nM
same,TGI,EKVX NSCLC,7.84 µM
same,GI50,OVCAR-4 ovarian,507 nM
same,TGI,OVCAR-4 ovarian,1880 nM
same,GI50,HCT-116 colon,345 nM
same,TGI,HCT-116 colon,6.64 µM
same,GI50,HOP-92 NSCLC,234 nM
same,TGI,HOP-92 NSCLC,770 nM
same,GI50,RPMI-8226 leukemia,209 nM
same,TGI,RPMI-8226 leukemia,4.11 µM
same,GI50,SF-295 CNS,1990 nM
same,TGI,SF-295 CNS,6.4 µM
same,GI50,IGROV1 ovarian,894 nM
same,TGI,IGROV1 ovarian,5.52 µM
same,GI50,ACHN renal,331 nM
same,TGI,ACHN renal,1180 nM
same,GI50,DU-145 prostate,3.72 µM
same,TGI,DU-145 prostate,14.9 µM
same,GI50,CAKI-1 renal,610 nM
same,TGI,CAKI-1 renal,2120 nM
same,GI50,MCF7 breast,442 nM
same,TGI,MCF7 breast,10.8 µM
same,GI50,HL-60(TB) leukemia,235 nM
same,TGI,HL-60(TB) leukemia,3.27 µM
same,GI50,NCI-H522 lung,169 nM
same,TGI,NCI-H522 lung,686 nM
same,GI50,MDA-MB-231 breast,769 nM
same,TGI,MDA-MB-231 breast,2390 nM
same,GI50,SF-539 CNS,316 nM
same,TGI,SF-539 CNS,1150 nM
same,GI50,HS 578T breast,999 nM
same,TGI,HS 578T breast,8.55 µM
same,GI50,T-47D breast,358 nM
same,TGI,T-47D breast,2960 nM
same,GI50,K-562 leukemia,275 nM
same,TGI,K-562 leukemia,> 40.2 µM
same,GI50,UACC-257 melanoma,1500 nM
same,TGI,UACC-257 melanoma,3.63 µM
same,GI50,NCI-H23 lung,431 nM
same,TGI,NCI-H23 lung,2280 nM
same,GI50,SK-MEL-2 melanoma,2230 nM
same,TGI,SK-MEL-2 melanoma,4.55 µM
same,GI50,BT-549 breast,309 nM
same,TGI,BT-549 breast,1110 nM
same,GI50,COLO 205 colon,1310 nM
same,TGI,COLO 205 colon,2720 nM
same,GI50,PC-3 prostate,249 nM
same,TGI,PC-3 prostate,2360 nM
same,GI50,SN12C renal,675 nM
same,TGI,SN12C renal,11.1 µM
same,GI50,SW-620 colon,363 nM
same,TGI,SW-620 colon,1610 nM
same,GI50,OVCAR-8 ovarian,569 nM
same,TGI,OVCAR-8 ovarian,16.5 µM
same,GI50,SK-MEL-28 melanoma,613 nM
same,TGI,SK-MEL-28 melanoma,1900 nM
same,GI50,HT29 colon,542 nM
same,TGI,HT29 colon,2950 nM
same,GI50,UO-31 renal,339 nM
same,TGI,UO-31 renal,1310 nM
same,GI50,OVCAR-3 ovarian,360 nM
same,TGI,OVCAR-3 ovarian,1370 nM
same,GI50,UACC-62 melanoma,501 nM
same,TGI,UACC-62 melanoma,1870 nM
same,GI50,SF-268 CNS,2820 nM
same,TGI,SF-268 CNS,13.2 µM
same,GI50,SK-MEL-5 melanoma,804 nM
same,TGI,SK-MEL-5 melanoma,2080 nM
same,GI50,RXF 393 renal,293 nM
same,TGI,RXF 393 renal,1270 nM
same,GI50,M14 melanoma,901 nM
same,TGI,M14 melanoma,2840 nM
same,GI50,SR leukemia,303 nM
same,TGI,SR leukemia,> 100 µM
same,GI50,CCRF-CEM leukemia,308 nM
same,TGI,CCRF-CEM leukemia,3.2 µM
same,GI50,NCI/ADR-RES ovarian,623 nM
same,TGI,NCI/ADR-RES ovarian,7.14 µM
same,GI50,SK-OV-3 ovarian,2660 nM
same,TGI,SK-OV-3 ovarian,7.23 µM
same,GI50,NCI-H226 lung,2240 nM
same,TGI,NCI-H226 lung,6.81 µM
